Consider 27 compounds from ChEMBL document CHEMBL3112556, “Novel GlyT1 inhibitor chemotypes by scaffold hopping. Part 2: development of a [3.3.0]-based series and other piperidine bioisosteres” (Bioorg Med Chem Lett, 2014).

In series [1] the target is T1, Sodium- and chloride-dependent glycine transporter 2 (Homo sapiens, UniProt Q9Y345).
T1 sequence (Q9Y345 whole entry): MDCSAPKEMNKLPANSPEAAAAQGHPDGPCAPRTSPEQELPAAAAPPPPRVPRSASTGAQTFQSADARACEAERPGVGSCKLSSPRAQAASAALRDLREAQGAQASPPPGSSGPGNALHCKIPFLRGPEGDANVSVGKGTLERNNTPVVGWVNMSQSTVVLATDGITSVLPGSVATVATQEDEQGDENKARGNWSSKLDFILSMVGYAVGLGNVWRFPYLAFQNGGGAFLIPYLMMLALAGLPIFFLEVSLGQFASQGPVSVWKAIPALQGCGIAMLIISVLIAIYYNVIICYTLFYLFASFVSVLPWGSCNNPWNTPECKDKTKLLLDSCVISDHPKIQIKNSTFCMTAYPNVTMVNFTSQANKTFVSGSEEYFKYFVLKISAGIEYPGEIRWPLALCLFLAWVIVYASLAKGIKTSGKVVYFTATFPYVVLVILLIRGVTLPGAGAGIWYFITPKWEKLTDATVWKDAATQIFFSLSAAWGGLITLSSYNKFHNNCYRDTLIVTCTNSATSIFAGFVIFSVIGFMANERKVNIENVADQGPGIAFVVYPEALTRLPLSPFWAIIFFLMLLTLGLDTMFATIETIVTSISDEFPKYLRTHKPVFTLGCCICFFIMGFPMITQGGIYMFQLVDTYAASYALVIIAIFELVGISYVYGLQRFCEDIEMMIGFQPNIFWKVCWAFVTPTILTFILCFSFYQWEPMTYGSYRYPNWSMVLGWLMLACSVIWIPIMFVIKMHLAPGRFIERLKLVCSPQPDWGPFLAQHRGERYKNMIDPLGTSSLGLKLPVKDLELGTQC
Nature of the series: Inhibition of GlyT2 (unknown origin) assessed as [14C]-glycine transport.

Series [2] concerns the target T2, Sodium- and chloride-dependent glycine transporter 1 (Homo sapiens, UniProt P48067).
T2 sequence (P48067 whole entry): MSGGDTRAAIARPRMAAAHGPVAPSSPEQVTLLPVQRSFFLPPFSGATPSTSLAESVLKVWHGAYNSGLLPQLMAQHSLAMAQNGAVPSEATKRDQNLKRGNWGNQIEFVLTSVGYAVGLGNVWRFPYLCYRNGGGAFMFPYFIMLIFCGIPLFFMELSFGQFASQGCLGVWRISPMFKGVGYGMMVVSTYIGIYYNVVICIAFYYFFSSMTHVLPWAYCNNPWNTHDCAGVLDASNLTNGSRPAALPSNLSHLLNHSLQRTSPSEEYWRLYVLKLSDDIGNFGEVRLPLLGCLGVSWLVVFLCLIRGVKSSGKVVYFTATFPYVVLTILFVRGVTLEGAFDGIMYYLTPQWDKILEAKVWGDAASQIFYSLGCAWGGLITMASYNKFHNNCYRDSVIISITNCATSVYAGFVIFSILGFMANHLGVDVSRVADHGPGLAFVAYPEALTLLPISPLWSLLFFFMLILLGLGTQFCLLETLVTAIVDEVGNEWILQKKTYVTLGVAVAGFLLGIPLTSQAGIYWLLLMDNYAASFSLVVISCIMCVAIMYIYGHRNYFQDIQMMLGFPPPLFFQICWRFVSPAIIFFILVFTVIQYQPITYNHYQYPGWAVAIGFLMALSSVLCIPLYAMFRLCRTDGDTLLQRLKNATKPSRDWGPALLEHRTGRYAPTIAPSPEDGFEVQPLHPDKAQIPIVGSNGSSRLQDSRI
Nature of the series: Inhibition of GlyT1 (unknown origin) assessed as [14C]-glycine transport.

The target of series [3] is T3, Sodium- and chloride-dependent glycine transporter 1 (Homo sapiens) (UniProt P48067).
T3 sequence (whole entry): T2 sequence (P48067 whole entry)
Nature of the series: Competitive inhibition of GlyT1 (unknown origin) assessed as [14C]-glycine transport by Eadie-Hoffstee plot analysis.

A short description of series [4]: Fraction unbound in rat. Conditions: in vitro. The format is ADME.
Series [5] in a line: Inhibition of CYP450 (unknown origin). It counts as ADME, Homo sapiens.
Series [6] can be described thus: Metabolic stability in rat liver microsomes assessed as compound remaining after 90 mins. It counts as ADME. To be noted: read-out: Stability. A general note: Liver microsomes are vesicles of endoplasmic reticulum, rich in cytochrome P450 enzymes.

Calls of active or inactive are those of the source. The calls are words filed in the database; no cut-off is given here.

One may read the IC50 as the concentration at which inhibition is half-maximal. With `O=C(NC1CCC2CN(S(=O)(=O)c3ccccn3)CC21)c1ccc(Cl)cc1Cl` (racemic), the figures for the IC50 in series [1] and in series [2] were over 30 µM and over 10 µM, respectively.
For the compound `Cn1cnc(S(=O)(=O)N2CCC(C(NC(=O)c3ccc(Cl)cc3Cl)c3ccccn3)CC2)c1` (racemic), the “competitive inhibition (active/inactive)” value in series [3] was “Active”.
For `Cn1cnc(S(=O)(=O)N2CC3CCC(NC(=O)c4ccc(Cl)cc4)C3C2)c1` (racemic), the IC50 in series [1] was over 30 µM.
Consider `Cn1cnc(S(=O)(=O)N2CC(C(NC(=O)c3ccc(Cl)cc3Cl)c3ccccc3)C2)c1` (racemic), for which the “competitive inhibition (active/inactive)” value in series [3] was “Active”.
With `Cn1cnc(S(=O)(=O)N2CC3CCC(NC(=O)c4ccccc4C(F)(F)F)C3C2)c1` (racemic), the IC50 in series [1] is over 30 µM; in series [2] it was 0.112 µM. Further, in series [3], the “competitive inhibition (active/inactive)” value was “Active”.
Regarding `O=C(NC1CCC2CN(S(=O)(=O)c3ccccc3)CC21)c1ccc(Cl)cc1Cl` (racemic), the IC50 is over 30 µM in series [1] and over 10 µM in series [2].
Turning to `CCCCS(=O)(=O)N1CC2CCC(NC(=O)c3ccc(Cl)cc3Cl)C2C1` (racemic), the IC50 in series [1] is over 30 µM; in series [2] it was over 10 µM.
As for `Cn1cnc(S(=O)(=O)N2CC3CCC(NC(=O)c4c(F)cccc4F)C3C2)c1` (racemic), the IC50 in series [1] is over 30 µM.
As to `Cn1cnc(S(=O)(=O)N2CC3CCC(NC(=O)c4ccc(F)cc4F)C3C2)c1` (racemic), the IC50 in series [1] is over 30 µM.
`Cn1cnc(S(=O)(=O)N2CC(C(NC(=O)c3ccc(Cl)cc3Cl)c3ccccn3)C2)c1` (racemic) had a Fu in series [4] of 14%. In addition, the IC50 in series [5] is over 10 µM. Besides, the “competitive inhibition (active/inactive)” value in series [3] was “Active”. Further, in series [6], the remaining at 1.5 h was 75%.
As to `Cn1cnc(S(=O)(=O)N2CCC(C(NC(=O)c3ccc(Cl)cc3Cl)c3ccccc3)CC2)c1` (racemic), the “competitive inhibition (active/inactive)” value in series [3] was “Active”.
Take `Cn1cnc(S(=O)(=O)N2CC3CCC(NC(=O)C4CCCCC4)C3C2)c1` (racemic): the IC50 in series [1] was over 30 µM.
`CCS(=O)(=O)N1CC2CCC(NC(=O)c3ccc(Cl)cc3Cl)C2C1` (racemic): the IC50 in series [1] was over 30 µM; in series [2], over 10 µM.
`Cn1cnc(S(=O)(=O)N2CC3CCC(NC(=O)c4ccccc4Cl)C3C2)c1` (racemic): the figures for the IC50 in series [1] and in series [2] were over 30 µM and 0.115 µM, respectively.
With `Cn1cnc(S(=O)(=O)N2CCC(C(NC(=O)c3ccc(Cl)cc3Cl)c3cccs3)CC2)c1` (racemic), in series [3], the “competitive inhibition (active/inactive)” value was “Active”.
Turning to `Cn1cnc(S(=O)(=O)N2CC3CCC(NC(=O)c4ccc(F)cc4)C3C2)c1` (racemic), the IC50 in series [1] is over 30 µM.
Regarding `CCCS(=O)(=O)N1CC(C(NC(=O)c2ccc(Cl)cc2Cl)c2ccccc2)C1` (racemic), the “competitive inhibition (active/inactive)” value in series [3] is “Active”.
The same measure, in the same setting: in the case of `CCCS(=O)(=O)N1CCC(C(NC(=O)c2ccc(Cl)cc2Cl)c2ccccc2)CC1` (racemic) it was “Active”.
For `CCCS(=O)(=O)N1CC2CCC(NC(=O)c3ccc(Cl)cc3Cl)C2C1` (racemic), the results for the IC50 in series [1] and in series [2] were over 30 µM and over 10 µM, respectively.
For the compound `Cn1cnc(S(=O)(=O)N2CC3CCC(NC(=O)c4cccc(F)c4)C3C2)c1` (racemic), the IC50 was over 30 µM in series [1] and over 10 µM in series [2].
As to `Cn1cnc(S(=O)(=O)N2CC3CCC(NC(=O)c4ccc(F)c(F)c4)C3C2)c1` (racemic), the IC50 in series [1] is over 30 µM; in series [2] it was 1.57 µM.
Consider `Cn1cnc(S(=O)(=O)N2CC3CCC(NC(=O)c4ccccc4F)C3C2)c1` (racemic), for which the IC50 in series [1] was over 30 µM.
Turning to `Cn1cnc(S(=O)(=O)N2CC(C(NC(=O)c3ccc(Cl)cc3Cl)c3cccs3)C2)c1` (racemic), the “competitive inhibition (active/inactive)” value in series [3] was “Active”.
Turning to `Cn1cc(S(=O)(=O)N2CC3CCC(NC(=O)c4ccc(Cl)cc4Cl)C3C2)nn1` (racemic), the values for the IC50 in series [1] and in series [2] were over 30 µM and 0.015 µM, respectively.
Turning to `Cn1cnc(S(=O)(=O)N2CC3CCC(NC(=O)c4ccc(Cl)cc4Cl)C3C2)c1` (racemic), the figures for the IC50 in series [1] and in series [5] were over 30 µM and over 10 µM, respectively. The compound further gave a Fu in series [4] of 8.1%. The remaining at 1.5 h in series [6] was 30%.
As to `Cn1cnc(S(=O)(=O)N2CC3CCC(NC(=O)c4ccc(Cl)c(Cl)c4)C3C2)c1` (racemic), the IC50 in series [1] was over 30 µM.
As for `O=C(NC1CCC2CN(S(=O)(=O)c3cccs3)CC21)c1ccc(Cl)cc1Cl` (racemic), the IC50 in series [1] is over 30 µM; in series [2] it was over 10 µM.
